{"source": "patent US11986659B2", "about": "“Modulation of neuronal NKCC1 as a therapeutic strategy for spasticity and related disorders” (Research Foundation of the City University of New York, priority 2018, dated 2024)", "key": {"[1]": {"system": "non-injured control animals", "assay": "Stretch response in non-injured control animals after bumetanide injection", "assay_type": "in vivo, CD-1 mice", "source_text": "Adult female CD-1 mice (n=120 weight, 27-37 g) were used for all of the animal studies performed. A total of 51 animals were used for the long-term stimulation studies that included four groups. Animals with SCI were randomly divided into three groups: a-tsDCS-treated group (n=16), a c-tsDCS-treated group (n=15), and a sham-treated group (n=10), and a non-injured control group (n=10). Subgroups of these animals were also used to study long-term changes in expression for KCC2, pKCC2, NKCC1, and pNKCC1. Injured animals with spasticity were used to test the immediate effect of tsDCS on rate-dependent depression (RDD) (n=6), while the relatively short-term effects of tsDCS on the expression of NKCC1 and pNKCC1 were studied in non-injured animals (n=10). Pharmacological studies involving bumetanide (NKCC1 blocker) were conducted with SCI animals (n=9) and non-injured control animals (n=3). Meanwhile, qPCR studies were conducted with non-injured control animals (n=41). All of the study protocols were approved by the College of Staten Island IACUC committee. […]"}, "[2]": {"system": "animals with spasticity following SCI", "assay": "Stretch-apparatus test of spasticity (muscle resistance, EMG) in mice with SCI after bumetanide injection", "assay_type": "in vivo, CD-1 mice", "source_text": "Adult female CD-1 mice (n=120 weight, 27-37 g) were used for all of the animal studies performed. A total of 51 animals were used for the long-term stimulation studies that included four groups. Animals with SCI were randomly divided into three groups: a-tsDCS-treated group (n=16), a c-tsDCS-treated group (n=15), and a sham-treated group (n=10), and a non-injured control group (n=10). Subgroups of these animals were also used to study long-term changes in expression for KCC2, pKCC2, NKCC1, and pNKCC1. Injured animals with spasticity were used to test the immediate effect of tsDCS on rate-dependent depression (RDD) (n=6), while the relatively short-term effects of tsDCS on the expression of NKCC1 and pNKCC1 were studied in non-injured animals (n=10). Pharmacological studies involving bumetanide (NKCC1 blocker) were conducted with SCI animals (n=9) and non-injured control animals (n=3). Meanwhile, qPCR studies were conducted with non-injured control animals (n=41). All of the study protocols were approved by the College of Staten Island IACUC committee.\nFollowing administration of a ketamine/xylazine cocktail (90/10 mg/kg, i.p.) to achieve deep anesthesia, a laminectomy at thoracic T10 vertebra was performed to expose the T13 spinal segment. An infinite horizon (IH) spinal cord impactor (IH-0400, Precision Systems & Instrumentation, VA, USA) was used to induce a contusive SCI force. The impact force level was 60 kdyn and was selected based on data collected from exploratory experiments that were conducted with this impactor. In these preliminary studies, contusion injuries were induced with increasing impact forces in order to optimize the SCI contusion force needed to produce spastic mice. Mice impacted at 60 kdyn produced ideal spastic behavior at approximately 2-3 weeks post-injury. Impact was applied by using a standard mouse tip (diameter=1.3 mm). Following the contusion procedure, overlying muscles and skin were sutured and the surgical site was covered with a layer of gentamicin sulfate ointment to prevent infection. Each mouse subsequently received a number and then was placed on a warming pad (30° C.) for recovery.\nA computer-controlled stretch device was assembled in our laboratory from a stepper motor (DMX-UMD-23m, ARCUS Technology Inc., CA. USA), a foot presser mounted on a force-displacement transducer (FT03, GRASS Technologies/NATUS, CA, USA) connected to a bridge amplifier (ADInstruments, Colorado Springs, CO, USA), and a mouse holder (FIG. 1). The transducer was permanently fixed to a linear rail-guided carriage (SGB15NUU, ZNT Automatic Technology Co, Zhejiang, China). The rotational movement of the stepper motor is converted into linear displacement at the carriage by using a set of jointed flat-aluminum rods that are connected with swivel hub bearings. Two computer software programs were utilized to control the stepper motor and to perform the online (during) stretch and electromyogram (EMG) recordings. First, a stepper motor control software (DMX-UMD GUI, ARCUS Technology Inc.) was re-written to permit the execution of three consecutively timed stretches, with each stretch separated by two 10-s recovery intervals. The stepper motor was also programmed to provide three different stretch speeds: 18/s, 180/s, and 1800/s, which correspond to 3 RPM, 30 RPM, and 300 RPM, respectively. The second software package used was LabChart-7 bundled with PowerLab data acquisition system software (ADInstruments) which was used to gather and analyze data.\nA mouse restraining system was fabricated in our laboratory (FIG. 1) from three components. 1) A clear Plexiglas acrylic tube served as the mouse holding chamber. 2) An internally adjustable support system made of a clear acrylic concave stabilization plate. The location of the plate was able to be adjusted linearly along the length of the chamber via a handle that protruded through a cutout that ran the entire length of the tube. […]"}, "[3]": {"conditions": "60 mg/kg, 5, 20, 30 and 45 min after injection vs baseline, p<0.001"}}}
{"smiles": "CCCCNc1cc(C(=O)O)cc(S(N)(=O)=O)c1Oc1ccccc1", "note": "[bumetanide]", "values": [{"measurement": "animals exhibiting a reduced reflexive stretch response", "setting": "[1]; 60 mg/kg, non-injured control animals", "result": 21, "unit": "%"}, {"measurement": "reduction in reflexive muscle resistance in controls", "setting": "[1]; after bumetanide injection, controls", "result": 21, "unit": "°/0"}, {"measurement": "reductions in spasticity", "setting": "[2]; 30 mg/kg, one hour after administration, n=5, data not shown", "result": "moderate reductions in spasticity"}, {"measurement": "corresponding EMG", "setting": "[2]; [3]", "result": "significant reduction"}, {"measurement": "reduction in peak resistance (reflexive muscle resistance)", "setting": "[2]; [3]", "result": 34, "unit": "%"}, {"measurement": "background activity and resting muscle tone on slow stretches", "setting": "[2]; 60 mg/kg, thirty min after injection", "result": "reduce background activity and resting muscle tone"}, {"measurement": "spasticity following bumetanide treatment", "setting": "[2]; SCI mice, dose not given", "result": "spasticity was reduced"}, {"measurement": "muscle resistance and concurrent EMG at low speed and high speed (FIG. 9)", "setting": "[2]; following bumetanide injection, n=9 mice, vs baseline 2", "result": "decreases in muscle resistance and concurrent EMG"}]}
